We go through two compounds from ChEMBL document CHEMBL5291721, “A preclinical secondary pharmacology resource illuminates target-adverse drug reaction associations of marketed drugs” (Nat Commun, 2023).

For experiment [1], the target named is T1, Thromboxane A2 receptor (Homo sapiens, UniProt P21731).
T1 sequence (P21731 whole entry): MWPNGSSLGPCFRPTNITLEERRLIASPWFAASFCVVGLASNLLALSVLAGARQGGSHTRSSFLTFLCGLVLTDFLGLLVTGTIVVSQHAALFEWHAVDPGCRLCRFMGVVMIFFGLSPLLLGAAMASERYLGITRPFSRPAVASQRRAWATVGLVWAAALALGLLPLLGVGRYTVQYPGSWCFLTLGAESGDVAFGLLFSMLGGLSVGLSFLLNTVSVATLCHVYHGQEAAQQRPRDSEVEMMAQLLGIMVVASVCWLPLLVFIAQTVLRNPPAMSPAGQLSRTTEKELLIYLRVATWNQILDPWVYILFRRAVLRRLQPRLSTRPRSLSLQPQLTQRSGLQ
Format: functional, cell-based.

The next experiment has as its target T2, Estrogen receptor (Homo sapiens, UniProt P03372).
T2 sequence (P03372 whole entry): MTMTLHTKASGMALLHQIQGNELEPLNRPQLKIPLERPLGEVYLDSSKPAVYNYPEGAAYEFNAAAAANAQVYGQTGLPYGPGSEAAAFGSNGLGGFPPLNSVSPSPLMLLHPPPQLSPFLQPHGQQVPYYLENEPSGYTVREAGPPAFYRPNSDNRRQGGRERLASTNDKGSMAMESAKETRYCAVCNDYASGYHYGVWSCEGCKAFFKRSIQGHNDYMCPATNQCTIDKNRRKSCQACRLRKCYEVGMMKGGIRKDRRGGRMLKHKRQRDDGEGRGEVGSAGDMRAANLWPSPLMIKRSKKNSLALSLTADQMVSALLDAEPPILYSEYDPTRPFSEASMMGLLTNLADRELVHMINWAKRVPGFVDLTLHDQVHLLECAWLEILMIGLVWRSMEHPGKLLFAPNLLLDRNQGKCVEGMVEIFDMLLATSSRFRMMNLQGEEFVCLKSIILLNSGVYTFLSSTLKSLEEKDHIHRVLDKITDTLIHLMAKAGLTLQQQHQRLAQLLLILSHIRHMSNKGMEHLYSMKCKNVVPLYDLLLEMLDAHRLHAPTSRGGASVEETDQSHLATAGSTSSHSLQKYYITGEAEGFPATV

A further experiment concerns the target T3, Adenosine receptor A3 (Homo sapiens, UniProt P0DMS8).
T3 sequence (P0DMS8 whole entry): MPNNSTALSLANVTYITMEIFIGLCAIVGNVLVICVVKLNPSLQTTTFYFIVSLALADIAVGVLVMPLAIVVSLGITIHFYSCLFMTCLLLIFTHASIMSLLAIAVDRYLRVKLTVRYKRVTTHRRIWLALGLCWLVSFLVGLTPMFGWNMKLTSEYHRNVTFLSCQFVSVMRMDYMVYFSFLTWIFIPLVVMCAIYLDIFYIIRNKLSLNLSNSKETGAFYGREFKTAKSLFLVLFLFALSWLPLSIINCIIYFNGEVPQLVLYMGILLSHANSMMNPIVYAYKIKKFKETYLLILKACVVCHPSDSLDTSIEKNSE

For experiment [2], the target named is cGMP-inhibited 3',5'-cyclic phosphodiesterase 3A (Homo sapiens, UniProt Q14432). Format: functional.
cGMP-inhibited 3',5'-cyclic phosphodiesterase 3A, sequence (Q14432 whole entry): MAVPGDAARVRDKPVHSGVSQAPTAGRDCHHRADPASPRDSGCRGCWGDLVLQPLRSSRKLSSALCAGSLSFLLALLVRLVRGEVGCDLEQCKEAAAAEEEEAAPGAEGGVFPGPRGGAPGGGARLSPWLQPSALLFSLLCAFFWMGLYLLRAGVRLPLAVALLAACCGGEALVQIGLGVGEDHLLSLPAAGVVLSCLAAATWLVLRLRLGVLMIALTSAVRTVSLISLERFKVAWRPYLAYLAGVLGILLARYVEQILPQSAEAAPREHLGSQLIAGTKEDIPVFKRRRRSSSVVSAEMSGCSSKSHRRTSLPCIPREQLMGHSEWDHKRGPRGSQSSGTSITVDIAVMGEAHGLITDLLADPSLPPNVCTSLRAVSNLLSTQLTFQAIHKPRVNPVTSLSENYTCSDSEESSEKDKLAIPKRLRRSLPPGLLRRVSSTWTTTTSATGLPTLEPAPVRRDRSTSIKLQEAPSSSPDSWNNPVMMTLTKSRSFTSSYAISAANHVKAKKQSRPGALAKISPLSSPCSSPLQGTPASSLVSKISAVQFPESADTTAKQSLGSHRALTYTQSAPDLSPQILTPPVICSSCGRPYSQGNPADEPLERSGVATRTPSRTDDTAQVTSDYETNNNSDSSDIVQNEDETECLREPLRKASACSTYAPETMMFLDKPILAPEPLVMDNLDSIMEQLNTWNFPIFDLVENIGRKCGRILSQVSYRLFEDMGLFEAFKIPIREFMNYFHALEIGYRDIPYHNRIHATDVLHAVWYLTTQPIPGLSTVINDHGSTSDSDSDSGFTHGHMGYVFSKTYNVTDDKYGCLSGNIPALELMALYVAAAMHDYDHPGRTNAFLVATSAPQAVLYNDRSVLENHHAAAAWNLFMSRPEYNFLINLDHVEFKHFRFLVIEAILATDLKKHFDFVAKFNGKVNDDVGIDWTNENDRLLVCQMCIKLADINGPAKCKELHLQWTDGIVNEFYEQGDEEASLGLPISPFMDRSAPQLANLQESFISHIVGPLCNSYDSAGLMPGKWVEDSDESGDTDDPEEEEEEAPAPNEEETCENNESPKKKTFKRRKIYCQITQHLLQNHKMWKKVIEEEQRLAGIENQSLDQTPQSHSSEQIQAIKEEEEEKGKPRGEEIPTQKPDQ
A further experiment deals with T4, Adenosine receptor A1 (Homo sapiens, UniProt P30542).
T4 sequence (P30542 whole entry): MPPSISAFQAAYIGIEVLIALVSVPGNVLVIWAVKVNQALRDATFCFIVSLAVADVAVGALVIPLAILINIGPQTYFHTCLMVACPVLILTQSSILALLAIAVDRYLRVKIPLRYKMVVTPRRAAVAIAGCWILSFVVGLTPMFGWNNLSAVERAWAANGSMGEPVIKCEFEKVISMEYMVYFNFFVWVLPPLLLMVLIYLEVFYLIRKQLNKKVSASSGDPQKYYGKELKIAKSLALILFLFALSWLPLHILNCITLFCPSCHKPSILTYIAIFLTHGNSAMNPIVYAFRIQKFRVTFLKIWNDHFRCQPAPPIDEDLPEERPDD

Experiment [3] has as its target 3',5'-cyclic-AMP phosphodiesterase 4A (Homo sapiens, UniProt P27815). Format: functional.
The next experiment deals with T5, Progesterone receptor (Homo sapiens, UniProt P06401).
T5 sequence (P06401 whole entry): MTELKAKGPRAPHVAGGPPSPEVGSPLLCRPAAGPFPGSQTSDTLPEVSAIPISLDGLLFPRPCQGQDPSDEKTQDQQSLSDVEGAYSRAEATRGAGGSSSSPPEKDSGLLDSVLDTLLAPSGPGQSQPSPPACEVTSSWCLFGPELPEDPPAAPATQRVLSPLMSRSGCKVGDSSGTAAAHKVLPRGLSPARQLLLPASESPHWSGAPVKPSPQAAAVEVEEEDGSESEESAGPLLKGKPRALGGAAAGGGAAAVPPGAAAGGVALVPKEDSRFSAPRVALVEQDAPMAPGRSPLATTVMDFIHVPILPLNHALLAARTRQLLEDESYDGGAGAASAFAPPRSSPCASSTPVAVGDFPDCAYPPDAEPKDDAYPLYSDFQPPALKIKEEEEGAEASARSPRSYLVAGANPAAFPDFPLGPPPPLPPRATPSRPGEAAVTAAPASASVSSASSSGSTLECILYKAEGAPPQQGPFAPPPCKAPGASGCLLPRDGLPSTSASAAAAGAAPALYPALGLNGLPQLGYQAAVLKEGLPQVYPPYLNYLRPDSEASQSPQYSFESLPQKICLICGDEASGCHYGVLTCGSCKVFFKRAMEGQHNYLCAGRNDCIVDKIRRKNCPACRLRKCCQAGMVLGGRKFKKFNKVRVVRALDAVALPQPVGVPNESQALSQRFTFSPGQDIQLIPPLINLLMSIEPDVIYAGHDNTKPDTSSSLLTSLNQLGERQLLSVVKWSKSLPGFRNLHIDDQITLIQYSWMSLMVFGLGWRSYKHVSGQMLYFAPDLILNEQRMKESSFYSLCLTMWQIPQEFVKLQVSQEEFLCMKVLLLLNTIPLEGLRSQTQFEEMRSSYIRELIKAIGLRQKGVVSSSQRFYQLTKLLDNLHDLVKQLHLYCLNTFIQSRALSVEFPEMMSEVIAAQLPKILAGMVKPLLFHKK

In experiment [4] the target is T6, Prostaglandin G/H synthase 1 (Homo sapiens, UniProt P23219). Format: functional.
T6 sequence (P23219 whole entry): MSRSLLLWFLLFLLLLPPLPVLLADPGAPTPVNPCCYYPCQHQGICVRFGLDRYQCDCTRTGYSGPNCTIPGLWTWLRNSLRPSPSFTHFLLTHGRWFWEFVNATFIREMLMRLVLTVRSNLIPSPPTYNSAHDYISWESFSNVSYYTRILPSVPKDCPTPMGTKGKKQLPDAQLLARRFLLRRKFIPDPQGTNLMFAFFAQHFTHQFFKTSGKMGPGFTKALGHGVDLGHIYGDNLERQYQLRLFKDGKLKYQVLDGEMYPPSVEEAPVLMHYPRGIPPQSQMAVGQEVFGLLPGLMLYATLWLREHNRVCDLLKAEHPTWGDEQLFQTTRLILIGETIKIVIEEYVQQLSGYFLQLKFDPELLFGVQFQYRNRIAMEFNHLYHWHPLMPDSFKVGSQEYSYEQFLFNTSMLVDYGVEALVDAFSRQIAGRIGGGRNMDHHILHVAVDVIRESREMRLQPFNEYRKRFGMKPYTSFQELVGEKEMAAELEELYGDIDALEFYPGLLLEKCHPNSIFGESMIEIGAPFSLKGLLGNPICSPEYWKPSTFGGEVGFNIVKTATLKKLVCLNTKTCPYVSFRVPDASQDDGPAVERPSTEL
The target of another experiment is Prothrombin (Homo sapiens, UniProt P00734). The format is functional.
Experiment [5] concerns the target Vascular endothelial growth factor receptor 2 (Homo sapiens, UniProt P35968). The format is functional.
The target in experiment [6] is T1, Thromboxane A2 receptor. The format is functional, cell-based. This is another data set of the same source.
The target in a further experiment is Acetylcholinesterase (Homo sapiens, UniProt P22303). The format is functional.
Acetylcholinesterase, sequence (P22303 whole entry): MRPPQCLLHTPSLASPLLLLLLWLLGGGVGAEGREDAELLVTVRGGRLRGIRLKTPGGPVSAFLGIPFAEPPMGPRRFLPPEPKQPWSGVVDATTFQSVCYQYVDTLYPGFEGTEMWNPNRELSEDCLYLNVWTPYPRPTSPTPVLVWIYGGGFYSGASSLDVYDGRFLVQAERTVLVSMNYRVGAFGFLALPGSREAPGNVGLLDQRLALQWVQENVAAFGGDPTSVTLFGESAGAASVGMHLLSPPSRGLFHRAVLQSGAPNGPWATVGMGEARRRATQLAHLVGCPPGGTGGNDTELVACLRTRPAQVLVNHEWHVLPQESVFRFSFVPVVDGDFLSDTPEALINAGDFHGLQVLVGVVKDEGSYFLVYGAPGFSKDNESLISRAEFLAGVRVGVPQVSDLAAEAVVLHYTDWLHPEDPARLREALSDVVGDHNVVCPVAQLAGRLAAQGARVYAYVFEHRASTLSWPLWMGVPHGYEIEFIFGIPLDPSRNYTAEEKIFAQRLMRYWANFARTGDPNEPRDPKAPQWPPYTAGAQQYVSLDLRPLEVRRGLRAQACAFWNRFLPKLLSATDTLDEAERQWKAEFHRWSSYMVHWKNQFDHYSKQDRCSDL
The target in experiment [7] is T6, Prostaglandin G/H synthase 1. The format is functional. The source holds these as a separate data set.
Experiment [8] addresses Voltage-gated inwardly rectifying potassium channel KCNH2 (Homo sapiens, UniProt Q12809). Format: functional. The following applies: read-out: AC50.
The target in another experiment is T7, D(4) dopamine receptor (Homo sapiens, UniProt P21917).
T7 sequence (P21917 whole entry): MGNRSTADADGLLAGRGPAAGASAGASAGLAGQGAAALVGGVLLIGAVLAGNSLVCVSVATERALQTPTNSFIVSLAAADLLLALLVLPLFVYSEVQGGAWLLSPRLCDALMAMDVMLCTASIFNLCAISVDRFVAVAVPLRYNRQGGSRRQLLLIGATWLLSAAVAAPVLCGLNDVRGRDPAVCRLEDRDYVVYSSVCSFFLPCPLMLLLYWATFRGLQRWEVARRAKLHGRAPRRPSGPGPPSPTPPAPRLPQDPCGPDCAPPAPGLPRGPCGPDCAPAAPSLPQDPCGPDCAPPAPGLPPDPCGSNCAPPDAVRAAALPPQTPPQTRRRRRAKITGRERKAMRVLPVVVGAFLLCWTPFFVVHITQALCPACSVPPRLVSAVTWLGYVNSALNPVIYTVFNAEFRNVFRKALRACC

Where only a bound is given, the exact number is not on record here.
Note: assay procedure not described here.

Vascular endothelial growth factor receptor 2, sequence (P35968 whole entry): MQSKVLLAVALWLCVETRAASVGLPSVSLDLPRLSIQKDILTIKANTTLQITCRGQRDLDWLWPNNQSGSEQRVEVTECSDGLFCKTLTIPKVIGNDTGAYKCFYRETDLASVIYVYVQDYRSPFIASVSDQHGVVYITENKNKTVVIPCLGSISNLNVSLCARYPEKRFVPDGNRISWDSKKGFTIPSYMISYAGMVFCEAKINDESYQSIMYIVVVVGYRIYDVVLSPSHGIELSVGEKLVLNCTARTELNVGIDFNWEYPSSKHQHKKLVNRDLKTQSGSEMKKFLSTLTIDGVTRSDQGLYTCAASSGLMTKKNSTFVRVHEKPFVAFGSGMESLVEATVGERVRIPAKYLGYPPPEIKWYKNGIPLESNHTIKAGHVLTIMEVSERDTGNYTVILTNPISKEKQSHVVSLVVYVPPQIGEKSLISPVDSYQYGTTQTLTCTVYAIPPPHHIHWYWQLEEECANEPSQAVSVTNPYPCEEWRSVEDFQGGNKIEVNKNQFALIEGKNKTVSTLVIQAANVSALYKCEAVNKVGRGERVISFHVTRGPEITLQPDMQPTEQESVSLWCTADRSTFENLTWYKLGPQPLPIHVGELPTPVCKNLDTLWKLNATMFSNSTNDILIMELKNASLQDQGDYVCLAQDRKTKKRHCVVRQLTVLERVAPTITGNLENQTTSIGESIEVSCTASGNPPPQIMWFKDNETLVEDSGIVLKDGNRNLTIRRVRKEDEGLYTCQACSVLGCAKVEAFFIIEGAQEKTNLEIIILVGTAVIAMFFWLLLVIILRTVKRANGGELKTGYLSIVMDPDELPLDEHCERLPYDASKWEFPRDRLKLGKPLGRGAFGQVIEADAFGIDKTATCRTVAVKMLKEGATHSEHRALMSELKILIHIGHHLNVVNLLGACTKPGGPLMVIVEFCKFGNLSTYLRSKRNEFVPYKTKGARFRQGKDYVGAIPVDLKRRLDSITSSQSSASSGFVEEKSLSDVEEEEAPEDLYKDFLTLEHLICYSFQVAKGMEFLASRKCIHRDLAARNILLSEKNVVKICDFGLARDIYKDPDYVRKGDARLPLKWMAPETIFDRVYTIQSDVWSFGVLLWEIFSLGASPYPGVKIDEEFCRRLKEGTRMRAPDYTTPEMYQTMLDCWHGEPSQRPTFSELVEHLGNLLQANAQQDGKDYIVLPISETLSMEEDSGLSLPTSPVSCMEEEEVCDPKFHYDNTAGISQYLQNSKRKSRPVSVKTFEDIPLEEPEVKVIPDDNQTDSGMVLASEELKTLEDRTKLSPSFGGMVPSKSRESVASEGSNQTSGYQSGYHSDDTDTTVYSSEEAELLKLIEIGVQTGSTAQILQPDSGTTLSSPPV
Voltage-gated inwardly rectifying potassium channel KCNH2, sequence (Q12809 whole entry): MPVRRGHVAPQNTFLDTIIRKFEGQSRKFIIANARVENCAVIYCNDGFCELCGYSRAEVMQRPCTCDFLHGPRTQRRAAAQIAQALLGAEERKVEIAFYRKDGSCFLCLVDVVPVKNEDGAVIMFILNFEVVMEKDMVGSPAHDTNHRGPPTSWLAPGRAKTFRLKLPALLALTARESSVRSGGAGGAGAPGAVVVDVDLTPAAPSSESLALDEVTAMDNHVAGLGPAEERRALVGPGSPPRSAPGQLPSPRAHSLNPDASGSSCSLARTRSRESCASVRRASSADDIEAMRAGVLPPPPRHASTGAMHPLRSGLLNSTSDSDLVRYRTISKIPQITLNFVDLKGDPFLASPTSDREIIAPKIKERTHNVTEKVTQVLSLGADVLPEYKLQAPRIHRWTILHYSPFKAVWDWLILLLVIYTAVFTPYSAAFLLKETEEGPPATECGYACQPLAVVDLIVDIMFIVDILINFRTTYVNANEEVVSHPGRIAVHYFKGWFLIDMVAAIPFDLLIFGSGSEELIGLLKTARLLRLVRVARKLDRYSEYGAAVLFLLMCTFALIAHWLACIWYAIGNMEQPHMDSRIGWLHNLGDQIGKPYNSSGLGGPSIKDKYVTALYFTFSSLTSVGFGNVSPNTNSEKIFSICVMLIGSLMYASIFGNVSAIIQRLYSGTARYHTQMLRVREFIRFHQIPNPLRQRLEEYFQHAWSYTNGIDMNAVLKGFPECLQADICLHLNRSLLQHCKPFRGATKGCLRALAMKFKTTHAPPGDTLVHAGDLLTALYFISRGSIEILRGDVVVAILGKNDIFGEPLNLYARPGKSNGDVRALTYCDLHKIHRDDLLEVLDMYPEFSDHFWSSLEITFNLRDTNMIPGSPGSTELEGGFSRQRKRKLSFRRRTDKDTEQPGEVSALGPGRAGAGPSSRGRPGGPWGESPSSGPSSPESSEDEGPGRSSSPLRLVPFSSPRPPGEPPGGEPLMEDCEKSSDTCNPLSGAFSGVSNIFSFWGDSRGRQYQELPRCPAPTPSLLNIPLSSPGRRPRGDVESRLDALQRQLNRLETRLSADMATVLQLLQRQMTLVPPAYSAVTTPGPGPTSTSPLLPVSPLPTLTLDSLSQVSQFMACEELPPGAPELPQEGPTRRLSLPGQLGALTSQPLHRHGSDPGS

Regarding `C=CC[C@]1(O)CC[C@H]2[C@@H]3CCC4=CCCC[C@@H]4[C@H]3CC[C@@]21C` [ALLYLESTRENOL], the AC50 (usually the concentration at which the activity in the assay is half-maximal) at Thromboxane A2 receptor [1] was above 30 µM; at Estrogen receptor it was 0.331 µM; on Adenosine receptor A3 it was 3.91 µM; in experiment [2], above 30 µM; on Adenosine receptor A1, above 30 µM; in experiment [3], above 30 µM. The concentration at half-maximal activity (AC50) is 0.0039 µM at Progesterone receptor; 25.5 µM in experiment [4]; above 30 µM on Prothrombin; above 30 µM in experiment [5]; above 30 µM at Thromboxane A2 receptor [6]; above 30 µM on Acetylcholinesterase. This compound registered an AC50 in experiment [7] above 30 µM.

On to `COC(=O)[C@@H]1[C@H]2C[C@H]3c4[nH]c5ccccc5c4CCN3C[C@@H]2CC[C@@H]1O` [YOHIMBINE], for which the results for the AC50 (in experiment [8]; at D(4) dopamine receptor; at Acetylcholinesterase) were 29.1 µM, above 10 µM and above 0.3 µM, respectively.
